Data reported in US6573230B1, “Liquid cleaning composition containing an effective biodegradable chelating agent” (Colgate-Palmolive Company, priority 2002, dated 2003).

Columns and labels:
[1] = Ready biodegradability of the sequestering agent; conditions: sequestering agent of the composition: A EDDS, B gluconic acid, C IDS Na, D EDTA
[2] = pH / physical stability on ageing; format: physicochemical; conditions: stable pH and absence of discoloration

SMILES | Biodegradability of sequestering agent (ready biodegradability) [1] | pH Physical stability on ageing [2]
O=C(O)C[C@H](NCCN[C@@H](CC(=O)O)C(=O)O)C(=O)O [EDDS, trisodium ethylene diamine-N,N-disuccinate] | biodegradable | imparting product physical stability
O=C(O)CN(CCN(CC(=O)O)CC(=O)O)CC(=O)O [EDTA, ethylene diamine tetraacetate] | non-ready biodegradable | –
